Earlier results, collected in patent US9782416B2, “Pharmaceutical formulations of potassium ATP channel openers and uses thereof” (Essentialis, Inc., priority 2004, dated 2017).

Legend:
[1] = target: Kir6.2/SUR1 channel (Rattus norvegicus, UniProt Q09429); settings: Dabrowski et al. 2002
[2] = target: T1, KATP channel (Homo sapiens, UniProt Q09428); settings: patients with hyperinsulinism and patients with pancreatic insulinoma
T1 construct: host or cells: patients with hyperinsulinism or pancreatic insulinoma (endogenous channel)
T1 sequence (Q09428 whole entry): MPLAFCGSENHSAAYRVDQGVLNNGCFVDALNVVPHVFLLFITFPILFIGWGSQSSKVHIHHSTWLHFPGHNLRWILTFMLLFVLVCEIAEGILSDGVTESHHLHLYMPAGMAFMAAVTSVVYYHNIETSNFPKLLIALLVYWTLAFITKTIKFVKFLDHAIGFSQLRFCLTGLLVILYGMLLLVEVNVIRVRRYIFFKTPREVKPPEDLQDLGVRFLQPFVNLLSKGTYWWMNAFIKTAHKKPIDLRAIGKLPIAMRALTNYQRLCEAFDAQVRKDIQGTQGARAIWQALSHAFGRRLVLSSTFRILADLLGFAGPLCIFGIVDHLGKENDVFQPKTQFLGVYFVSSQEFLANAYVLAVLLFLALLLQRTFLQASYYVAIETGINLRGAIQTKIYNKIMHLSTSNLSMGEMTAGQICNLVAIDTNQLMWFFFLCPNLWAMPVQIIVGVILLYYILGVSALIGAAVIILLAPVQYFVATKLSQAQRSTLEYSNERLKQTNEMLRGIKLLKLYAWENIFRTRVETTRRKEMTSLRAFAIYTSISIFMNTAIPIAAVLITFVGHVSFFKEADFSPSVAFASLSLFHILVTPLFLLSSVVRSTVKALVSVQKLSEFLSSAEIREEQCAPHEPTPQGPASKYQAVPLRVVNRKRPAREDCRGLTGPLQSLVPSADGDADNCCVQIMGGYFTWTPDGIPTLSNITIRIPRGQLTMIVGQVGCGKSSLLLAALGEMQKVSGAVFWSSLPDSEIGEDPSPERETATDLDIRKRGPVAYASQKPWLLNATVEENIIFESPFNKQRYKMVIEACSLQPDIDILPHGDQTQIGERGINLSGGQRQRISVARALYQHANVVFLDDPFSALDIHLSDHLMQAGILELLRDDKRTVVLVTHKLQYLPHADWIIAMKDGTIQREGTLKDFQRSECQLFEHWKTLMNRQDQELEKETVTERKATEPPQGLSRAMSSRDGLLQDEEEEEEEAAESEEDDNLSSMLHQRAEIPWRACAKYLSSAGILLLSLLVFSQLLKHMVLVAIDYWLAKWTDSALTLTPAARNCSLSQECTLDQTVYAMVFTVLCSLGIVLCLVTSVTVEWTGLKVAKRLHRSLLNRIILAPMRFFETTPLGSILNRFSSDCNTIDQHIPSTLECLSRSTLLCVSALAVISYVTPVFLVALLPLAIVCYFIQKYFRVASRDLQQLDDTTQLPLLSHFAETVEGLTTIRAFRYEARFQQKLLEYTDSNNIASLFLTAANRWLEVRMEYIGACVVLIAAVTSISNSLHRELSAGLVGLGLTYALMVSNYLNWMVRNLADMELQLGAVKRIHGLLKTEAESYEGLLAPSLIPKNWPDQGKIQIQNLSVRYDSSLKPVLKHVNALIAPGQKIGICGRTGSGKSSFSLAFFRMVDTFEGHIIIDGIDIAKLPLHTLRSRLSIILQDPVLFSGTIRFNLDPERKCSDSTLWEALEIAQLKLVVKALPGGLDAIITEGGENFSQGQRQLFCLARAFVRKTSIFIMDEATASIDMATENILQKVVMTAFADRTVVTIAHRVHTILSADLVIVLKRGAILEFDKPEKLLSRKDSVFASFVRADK
T1 sequence (Q14654 whole entry partner): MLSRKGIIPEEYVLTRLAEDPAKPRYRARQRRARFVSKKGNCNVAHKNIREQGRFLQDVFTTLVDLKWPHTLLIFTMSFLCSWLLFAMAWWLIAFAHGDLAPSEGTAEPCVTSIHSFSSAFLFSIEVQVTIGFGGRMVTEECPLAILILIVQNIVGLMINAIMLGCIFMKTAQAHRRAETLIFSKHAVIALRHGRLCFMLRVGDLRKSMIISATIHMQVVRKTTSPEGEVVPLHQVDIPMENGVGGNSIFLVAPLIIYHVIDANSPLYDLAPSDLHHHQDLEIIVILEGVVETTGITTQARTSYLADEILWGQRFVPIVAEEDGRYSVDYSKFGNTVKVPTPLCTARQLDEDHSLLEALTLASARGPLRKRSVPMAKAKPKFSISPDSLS

Kir6.2/SUR1 channel, sequence (Q09429 whole entry): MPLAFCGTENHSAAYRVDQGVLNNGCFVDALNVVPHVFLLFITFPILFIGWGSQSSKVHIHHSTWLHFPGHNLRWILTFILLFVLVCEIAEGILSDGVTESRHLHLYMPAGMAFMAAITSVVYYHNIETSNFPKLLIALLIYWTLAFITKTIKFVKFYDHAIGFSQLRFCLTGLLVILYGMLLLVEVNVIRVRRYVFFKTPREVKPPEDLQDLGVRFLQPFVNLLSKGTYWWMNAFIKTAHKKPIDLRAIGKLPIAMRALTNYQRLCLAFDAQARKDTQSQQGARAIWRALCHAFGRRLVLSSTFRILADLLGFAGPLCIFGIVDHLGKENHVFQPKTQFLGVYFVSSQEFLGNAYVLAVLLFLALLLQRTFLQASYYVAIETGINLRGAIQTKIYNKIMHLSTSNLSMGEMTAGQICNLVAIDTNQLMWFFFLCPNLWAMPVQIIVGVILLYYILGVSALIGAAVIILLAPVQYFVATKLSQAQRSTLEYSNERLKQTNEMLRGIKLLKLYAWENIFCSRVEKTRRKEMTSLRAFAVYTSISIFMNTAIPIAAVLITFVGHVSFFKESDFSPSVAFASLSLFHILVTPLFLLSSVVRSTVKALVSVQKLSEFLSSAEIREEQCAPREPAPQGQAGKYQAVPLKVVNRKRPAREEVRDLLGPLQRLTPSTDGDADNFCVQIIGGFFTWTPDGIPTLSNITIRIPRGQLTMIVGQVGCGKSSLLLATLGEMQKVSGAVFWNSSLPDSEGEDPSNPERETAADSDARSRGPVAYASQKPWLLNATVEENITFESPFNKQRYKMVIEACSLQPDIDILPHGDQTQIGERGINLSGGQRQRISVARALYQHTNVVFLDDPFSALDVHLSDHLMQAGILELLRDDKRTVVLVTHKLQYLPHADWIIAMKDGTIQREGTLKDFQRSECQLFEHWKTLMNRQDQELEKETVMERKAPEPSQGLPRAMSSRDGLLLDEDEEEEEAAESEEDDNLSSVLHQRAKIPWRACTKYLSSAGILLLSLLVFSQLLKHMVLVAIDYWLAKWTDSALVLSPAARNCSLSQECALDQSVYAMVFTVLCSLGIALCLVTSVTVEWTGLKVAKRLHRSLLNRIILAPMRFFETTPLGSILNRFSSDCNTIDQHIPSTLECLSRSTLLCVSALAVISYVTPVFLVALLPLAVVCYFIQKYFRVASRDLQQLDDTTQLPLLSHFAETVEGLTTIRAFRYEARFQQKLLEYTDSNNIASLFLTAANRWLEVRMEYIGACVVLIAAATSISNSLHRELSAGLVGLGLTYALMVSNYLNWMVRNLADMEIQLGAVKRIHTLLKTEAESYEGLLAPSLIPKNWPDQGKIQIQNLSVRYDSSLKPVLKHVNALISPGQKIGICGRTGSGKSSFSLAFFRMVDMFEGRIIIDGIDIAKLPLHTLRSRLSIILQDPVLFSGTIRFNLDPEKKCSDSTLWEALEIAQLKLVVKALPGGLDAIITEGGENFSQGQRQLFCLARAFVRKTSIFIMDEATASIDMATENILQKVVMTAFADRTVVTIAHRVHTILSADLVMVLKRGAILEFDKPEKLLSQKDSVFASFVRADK
Kir6.2/SUR1 channel, sequence (Q61743 whole entry partner): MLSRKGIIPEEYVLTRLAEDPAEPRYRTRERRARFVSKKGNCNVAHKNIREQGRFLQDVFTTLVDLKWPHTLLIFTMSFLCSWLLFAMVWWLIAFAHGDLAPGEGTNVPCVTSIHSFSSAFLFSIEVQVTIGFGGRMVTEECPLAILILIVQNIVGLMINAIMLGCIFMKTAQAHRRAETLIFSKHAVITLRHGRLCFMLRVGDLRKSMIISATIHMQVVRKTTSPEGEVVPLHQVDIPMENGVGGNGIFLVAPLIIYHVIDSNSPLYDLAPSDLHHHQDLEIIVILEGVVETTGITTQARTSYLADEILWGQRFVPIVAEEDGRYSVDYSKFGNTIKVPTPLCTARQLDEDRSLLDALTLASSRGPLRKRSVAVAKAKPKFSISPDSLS

For COc1ccc2c(c1)S(=O)(=O)N=C(NC(C)C)N2 [3-isopropylamino-7-methoxy-4H-1,2,4,-benzothiadiazine 1,1-dioxide], the channel opener selectivity [1] is given as “selective Kir6.2/SUR1 channel opener”.

For CC(C)N=C1Nc2cc(Cl)c(Cl)cc2S(=O)(=O)N1 [BPDZ 154], the “KATP channel activator activity” value [2] is listed as “effective KATP channel activator”.
